Test results: patent publication US20240016777A1, “COMPOUNDS AND METHODS FOR TREATING VIRAL INFECTIONS” (priority 2020, published 2024)
Read-outs that look alike come from different tables or passages of the source.

Assays:
[1] = molecular target: T1, Mpro (Severe acute respiratory syndrome coronavirus 2 (2019-nCoV) (SARS-CoV-2), UniProt P0DTD1); test: Label free mass spectrometry assay of Mpro substrate cleavage; assay type: biochemical; conditions: 50 μM concentration
[2] = molecular target: SARS-CoV-2 M^pro (Severe acute respiratory syndrome coronavirus 2 (2019-nCoV) (SARS-CoV-2), UniProt P0DTD1); test: biochemical
[3] = molecular target: T1, Mpro; assay type: biochemical; conditions: jump dilution
[4] = test system: SARS-CoV-2; conditions: human ACE2 transgenic mouse, 50-200 mg/kg, crystal form; cited from earlier work
[5] = test system: SARS-CoV-2; test: Vero E6-based SARS-CoV-2 replication assay (immunofluorescence of nucleocapsid protein); assay type: cell-based; conditions: Vero E6 cells
[6] = test system: Vero E6 cells; test: Toxicity in Vero E6 cells / cell culture
[7] = compound at 17 μM, duplicates, 20 min pre-incubation, read-out: Activity (% enzyme activity by fluorescence relative to initial enzyme activity)
[8] = read-out: Activity (% enzyme activity by fluorescence relative to initial enzyme activity), compound at 17 μM, duplicates, 20 min pre-incubation
[9] = compounds evaluated at 0.015-300 μM, read-out: IC50

Row | SMILES | remaining activity at 17 µM [2, 8] [%] | other results
1 | O=c1c(-c2c(O)cc(O)c3c(=O)cc(-c4ccc(O)cc4)oc23)c(-c2ccc(O)cc2)oc2cc(O)cc(O)c12 [3,8′-Biapigenin] | – | Inhibition of Mpro activity (mass spectrometry) [1]: completely inhibited; IC50 ([2]; IC50 for inhibition of Mpro): 5 to 15 µM
2 | O=c1cc(-c2ccc(O)c(-c3c(O)cc(O)c4c(=O)cc(-c5ccc(O)cc5)oc34)c2)oc2cc(O)cc(O)c12 [Amentoflavone] | – | Inhibition of Mpro activity (mass spectrometry) [1]: completely inhibited; IC50 ([2]; IC50, compounds evaluated at 0.015-300 μM): 8 µM; IC50 ([2]; IC50 for inhibition of Mpro): 5 to 15 µM; remaining activity at 17 µM [2, 7]: 10 to 80%; Reversibility of Mpro inhibition by dilution [3]: completely reversible
3 | O=c1cc(-c2ccccc2)oc2cc(O)c(O)c(O)c12 [Baicalein] | – | Body weight after SARS-CoV-2 infection [4]: prevented reduction in body weight; Lung injury resulting from SARS-CoV-2 infection [4]: decreased lung injury; Inhibition of SARS-CoV-2 replication (in words) [5]: antiviral activity
4 | COc1cc(-c2oc3cc(OC(C)=O)c(OC)c(OC(C)=O)c3c(=O)c2OC)ccc1OC(C)=O [Jaceidin triacetate] | – | Inhibition of Mpro activity (mass spectrometry) [1]: completely inhibited; Mpro inhibitory activity (comparison in words) [2]: comparable to or better than the previously described Mpro inhibitors baicalein and myricetin; remaining activity at 17 µM [2, 7]: < 10%; IC50 ([2]; read-out: IC50 for inhibition of Mpro): 5 to 15 µM; Toxicity in cells [6]: toxic
5 | CC(C)=CCc1c(O)cc2c(c1O)C(=O)[C@@]1(O)c3ccc(O)cc3O[C@H]1O2 [Lupinol C] | > 80 | –
6 | CC(C)=CCc1c(O)cc(O)c2c(=O)c(-c3ccc(O)cc3)coc12 [Lupiwighteone] | > 80 | –
7 | CC(C)=CCc1c(O)cc2occ(-c3ccc(O)cc3O)c(=O)c2c1O [Luteone] | > 80 | –
8 | COc1cc(O)c2c(c1CC=C(C)C)O[C@H](c1cc(CC=C(C)C)c(O)cc1O)CC2=O [Maackiaflavanone] | – | remaining activity at 17 µM [2, 7]: < 10%; IC50 [2, 9]: 3 µM
9 | CC(C)=CCc1c(-c2ccc(O)cc2O)oc2c3c(cc(O)c2c1=O)OC(C)(C)C=C3 [Morusin] | – | remaining activity at 17 µM [2, 7]: 10 to 80%
10 | CC(C)=CCc1c(-c2ccc(O)cc2O)oc2c(CC=C(C)C)c(O)cc(O)c2c1=O [Mulberrin] | > 80 | –
11 | CC(C)=CCCC1=C[C@@H](c2c(O)cc3oc(-c4ccc(O)cc4O)cc(=O)c3c2O)[C@H](C(=O)c2ccc(O)cc2O)[C@@H](c2ccc(O)cc2O)C1 [Multicaulisin] | – | remaining activity at 17 µM [2, 7]: < 10%; IC50 [2, 9]: 17 µM
12 | CC(C)=CCc1cc(-c2coc3cc(O)ccc3c2=O)ccc1O [Neobavaisoflavone] | 10 to 80 | –
13 | CC(C)=CCc1c2c(c3occ(-c4ccc(O)cc4)c(=O)c3c1O)C=CC(C)(C)O2 [Osajin] | – | remaining activity at 17 µM [2, 7]: > 80%
14 | CC(C)=CCc1c(O)ccc2c1O[C@H]1c3ccc(O)cc3OC[C@@H]21 [Phaseollidin] | > 80 | –
15 | CC(C)=CCc1c(O[C@@H]2O[C@H](CO)[C@@H](O)[C@H](O)[C@H]2O)cc(O)c2c1O[C@H](c1ccc(O)cc1)[C@@H](O)C2=O [Phellamurin] | > 80 | –
16 | O=C1CC(c2ccccc2)Oc2cc(O)cc(O)c21 (centres unmarked) [Pinocembrin] | – | Mpro inhibitory activity (comparison in words) [2]: relatively poor inhibition
17 | COc1ccc(-c2oc3c(CC=C(C)C)c(O)cc(O)c3c(=O)c2O[C@@H]2O[C@@H](C)[C@H](O)[C@@H](O)[C@H]2O[C@@H]2O[C@H](CO)[C@@H](O)[C@H](O)[C@H]2O)cc1 [Sagittatoside A] | > 80 | –
18 | COc1ccc(-c2oc3c(CC=C(C)C)c(O)cc(O)c3c(=O)c2O[C@@H]2O[C@@H](C)[C@H](O)[C@@H](O)[C@H]2O[C@@H]2OC[C@@H](O)[C@H](O)[C@H]2O)cc1 [Sagittatoside B] | > 80 | –
19 | COc1ccc(-c2oc3c(CC=C(C)C)c(O)cc(O)c3c(=O)c2O[C@@H]2O[C@@H](C)[C@H](O)[C@@H](OC(C)=O)[C@H]2O[C@@H]2O[C@H](CO)[C@@H](O)[C@H](O)[C@H]2O)cc1 [Sagittatoside C] | > 80 | –
20 | CC(C)=CCCC1(C)CCc2c(cc(O)c3c2OC(c2ccc(O)cc2O)CC3=O)O1 (centres unmarked) [Sanggenol L] | > 80 | –
21 | CC(C)=CCC/C(C)=C/Cc1c(O)c(CC=C(C)C)cc(C2CC(=O)c3c(O)cc(O)cc3O2)c1O (centres unmarked) [Sanggenol P] | > 80 | –
22 | CC(C)=CCCC1(C)C=Cc2c(ccc([C@@H]3CC(=O)c4c(O)cc(O)cc4O3)c2O)O1 (some centres unmarked) [Sanggenon N] | > 80 | –
23 | CC(C)=CC[C@]12Oc3cc(O)c([C@H]4C=C(C)C[C@H](c5ccc(O)cc5O)[C@H]4C(=O)c4cc(O)cc(O)c4)c(O)c3C(=O)[C@@]1(O)Oc1cc(O)ccc12 [Sanggenone C] | < 10 | –
24 | CC(C)=CC[C@]12Oc3cc(O)c([C@@H]4C=C(C)C[C@H](c5ccc(O)cc5O)[C@H]4C(=O)c4cc(O)cc(O)c4)c(O)c3C(=O)[C@@]1(O)Oc1cc(O)ccc12 [Sanggenone D] | < 10 | –
25 | CC(C)=CCCC1(C)C=Cc2c(O)ccc(-c3oc4cc(O)cc(O)c4c(=O)c3CC=C(C)C)c2O1 (centres unmarked) [Sanggenone K] | > 80 | –
26 | CC(C)=CCc1c(O)cc2c(c1O)C(=O)[C@H](O)[C@@H](c1ccc(O)cc1)O2 [Shuterin] | > 80 | –

Row | SMILES | remaining activity at 17 µM [2, 8] [%] | other results
27 | COc1cc(O)c(CC=C(C)C)c2oc(-c3ccc(O)cc3)c(O)c(=O)c12 [Sophoflavescenol] | > 80 | –
28 | CC(C)=CCc1c(O)cc(O)c2c1OC(c1cc3c(cc1O)O[C@@H](c1ccc(O)cc1)[C@@H]3c1cc(O)cc(O)c1)CC2=O (some centres unmarked) [Sophoraflavanone H] | > 80 | –
29 | C=C(C)[C@H](CC=C(C)C)Cc1c(O)cc(O)c2c1OC(c1cc3c(cc1O)O[C@@H](c1ccc(O)cc1)[C@@H]3c1cc(O)cc(O)c1)CC2=O (some centres unmarked) [Sophoraflavanone I] | 10 to 80 | –
30 | O=C1CC(c2ccc(O)cc2O)Oc2cc(O)cc(O)c21 (centres unmarked) [Steppogenin] | > 80 | –
31 | COc1c(-c2ccc(O)cc2)oc2cc(O)c(CC=C(C)C)c(O)c2c1=O [Topazolin] | > 80 | –
32 | COc1c(-c2cc(O)c(O)c(CC=C(C)C)c2)oc2cc(O)cc(O)c2c1=O [Uralenol-3-methylether] | > 80 | –
33 | CC(C)=CCc1cc(-c2oc3cc(O)cc(O)c3c(=O)c2O)cc(O)c1O [Uralenol] | > 80 | –
34 | CC(C)=CCc1c(O)cc2occ(-c3ccc(O)cc3)c(=O)c2c1O [Wighteone] | > 80 | –
35 | CC(C)=CCc1cc([C@@H]2CC(=O)c3c(O)cc(O)cc3O2)cc(CC=C(C)C)c1O [abyssinone V] | > 80 | –
36 | COc1ccc(-c2cc(=O)c3c(O)cc(O)cc3o2)cc1-c1c(O)cc(O)c2c(=O)cc(-c3ccc(O)cc3)oc12 [bilobetin] | – | Mpro inhibitory activity (comparison in words) [2]: comparable to amentoflavone
37 | COc1c(-c2ccc(O)c(O)c2)oc2c(CC=C(C)C)c(O)c(CC=C(C)C)c(O)c2c1=O [broussoflavonol B] | > 80 | –
38 | CC(C)=CCc1cc(-c2oc3cc(O)c(CC=C(C)C)c(O)c3c(=O)c2O)cc(O)c1O [broussonol E] | > 80 | –
39 | CC(C)=CCc1cc([C@H]2Oc3cc(O)cc(O)c3C(=O)[C@@H]2O)c(O)c(CC=C(C)C)c1O [cathayanon I] | 10 to 80 | –
40 | CC(C)=CCc1c2c(c(O)c3c(=O)c(-c4ccc(O)c(O)c4)coc13)CC(C(C)(C)O)O2 (centres unmarked) [furowanin A] | – | remaining activity at 17 µM [2, 7]: 10 to 80%; IC50 [2, 9]: 7 µM
41 | CC(C)=CCc1cc(-c2coc3cc(O)cc(O)c3c2=O)cc(O)c1O [glycyrrhisoflavone] | – | remaining activity at 17 µM [2, 7]: > 80%
42 | C=C(C)[C@H](CC=C(C)C)Cc1c(O)c(CC=C(C)C)c(O)c2c1O[C@H](c1ccc(O)cc1O)[C@@H](O)C2=O [kushenol M] | > 80 | –
43 | CC(C)=CCC/C(C)=C/Cc1cc(C2CC(=O)c3c(O)cc(O)cc3O2)c(O)cc1O (centres unmarked) [kuwanon E] | 10 to 80 | –
44 | C=C(C)C(O)Cc1c(O)c(CC=C(C)C)c2occ(-c3ccc(O)c(O)c3)c(=O)c2c1O (centres unmarked) [millewanin G] | > 80 | –
45 | C=C(C)C(O)Cc1c(O)c(CC=C(C)C)c(O)c2c(=O)c(-c3ccc(O)c(O)c3)coc12 (centres unmarked) [millewanin H] | 10 to 80 | –
46 | O=c1c(O)c(-c2ccc(O)cc2O)oc2cc(O)cc(O)c12 [morin] | – | remaining activity at 17 µM [2, 7]: > 80%
47 | O=c1c(O)c(-c2cc(O)c(O)c(O)c2)oc2cc(O)cc(O)c12 [myricetin, reference compound] | – | Inhibition of SARS-CoV-2 replication (in words) [5]: somewhat less potently than PGHG, baicalein, or apigenin; Inhibition of SARS-CoV-2 replication (in words) ([5]; listed as Myricetin): inhibitory activity only at 100 μM; Reversibility of Mpro inhibition by dilution [3]: resistant to dilution
48 | CC(C)=CCc1c(O)cc(O)c2c1O[C@H](c1ccc(O)cc1)[C@@H](O)C2=O [neophellamuretin] | > 80 | –
49 | CC(C)=CCC/C(C)=C/Cc1c(O)ccc(C2CC(=O)c3c(O)cc(O)cc3O2)c1O (centres unmarked) [sanggenol A] | 10 to 80 | –
50 | CC(C)=CCC/C(C)=C\Cc1c(O)cc(O)c2c1O[C@H](c1ccc(O)cc1O)CC2=O [sophoraflavanone C] | – | remaining activity at 17 µM [2, 7]: 10 to 80%; IC50 [2, 9]: 63 µM
51 | CC(C)=CCc1c2c(c(O)c3c(=O)c(-c4ccc(O)cc4)coc13)C=CC(C)(C)O2 [warangalone] | 10 to 80 | –
